Entries after “also recorded” stand apart in the source; their conditions may differ.
Assays:
recombinant human TSG-6 = target: T1, recombinant human TSG-6 (Homo sapiens, UniProt P19827+P98066); experiment: In vitro HC-transfer assay (IαI + rhTSG-6, Western blot anti-HC1); assay type: biochemical; details: 15 μM HA, 1.8 μM IαI, rhTSG-6, 2 h at 37 °C; for Substrate for HC transfer: Table 6; for Activity as substrate for HC transfer (text): Western blot anti-HC1
T1 construct: TSG-6–mediated HC-transfer assays (using full-length TSG6); purchased R&D Systems
T1 sequence (P98066 18-277): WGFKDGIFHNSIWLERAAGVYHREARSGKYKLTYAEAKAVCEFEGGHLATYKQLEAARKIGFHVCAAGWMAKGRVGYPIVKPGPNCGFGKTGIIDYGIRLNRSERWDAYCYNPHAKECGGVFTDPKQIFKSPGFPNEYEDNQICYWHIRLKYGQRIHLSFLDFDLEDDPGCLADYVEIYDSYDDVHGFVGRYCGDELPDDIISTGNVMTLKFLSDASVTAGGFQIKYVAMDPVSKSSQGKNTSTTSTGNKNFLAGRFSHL
T1 sequence (P19827 35-672 limits assumed): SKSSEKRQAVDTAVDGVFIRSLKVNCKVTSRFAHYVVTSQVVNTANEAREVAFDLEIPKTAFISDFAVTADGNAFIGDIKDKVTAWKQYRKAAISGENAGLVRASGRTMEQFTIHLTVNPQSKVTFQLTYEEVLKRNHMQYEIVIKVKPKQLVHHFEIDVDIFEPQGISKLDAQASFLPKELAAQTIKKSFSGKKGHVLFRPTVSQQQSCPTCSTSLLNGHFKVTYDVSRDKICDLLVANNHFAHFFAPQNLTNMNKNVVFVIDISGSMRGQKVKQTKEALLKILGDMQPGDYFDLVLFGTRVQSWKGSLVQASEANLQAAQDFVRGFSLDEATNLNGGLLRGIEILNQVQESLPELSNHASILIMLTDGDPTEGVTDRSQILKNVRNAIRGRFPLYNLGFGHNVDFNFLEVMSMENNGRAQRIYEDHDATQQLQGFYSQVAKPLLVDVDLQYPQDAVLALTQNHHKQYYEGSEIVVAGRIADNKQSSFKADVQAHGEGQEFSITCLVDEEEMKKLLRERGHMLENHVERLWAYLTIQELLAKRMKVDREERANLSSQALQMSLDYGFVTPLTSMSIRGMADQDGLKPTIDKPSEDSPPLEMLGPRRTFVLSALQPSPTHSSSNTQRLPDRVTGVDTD
Procedure: Covalent transfer of HC from IαI onto unmodified and chemically modified HA oligosaccharides was analyzed using the assay described previously ([26]). All reactions were performed using a buffer of 20 mM Hepes, pH 7.5, 150 mM NaCl, and 5 mM MgCl2. In a “standard” assay, HA oligosaccharides were at 15 μM, human IαI ([97]) 1.8 at μM (based on a molecular weight of 180 kDa), and recombinant human TSG-6 (R&D Systems) at 2.8 μM (based on a molecular weight of 35 kDa). Reaction mixtures were analyzed by SDS-PAGE using 4 to 12% bis-tris polyacrylamide gels (Invitrogen). For Western blot analysis, proteins were transferred onto nitrocellulose membrane (GE Healthcare) and incubated with antisera against HC1 (CP7, 1:10,000; ([98])). Bound primary antibody was detected using goat-anti-rabbit IgG conjugated to IR dye (LI-COR Biosciences) and blots imaged using an Odyssey Clx near-IR fluorescence imaging system (LICOR Biosciences).

hisCD44_HABD^20–169 = target: T2, hisCD44_HABD^20–169 (Homo sapiens, UniProt P16070); experiment: MST of HA oligosaccharides binding to hisCD44_HABD^20–169; details: for % HAx^AN: percentage of binding affinity (KB) compared to the unmodified oligosaccharide of the same length / Kd: Table 5; for Kd: 10 mM Hepes pH 7.5, 150 mM NaCl, 0.05% Tween-20, 25 °C, mean ± SD, three titrations, read-out: KD; for % Binding affinity hisCD44_HABD^20–169: Table 6, relative to unmodified oligosaccharide of the same length, by MST
T2 construct: A novel construct consisting of residues 20 to 169 of human CD44 and an N-terminal six-histidine tag; made in house
T2 sequence (P16070 20-169): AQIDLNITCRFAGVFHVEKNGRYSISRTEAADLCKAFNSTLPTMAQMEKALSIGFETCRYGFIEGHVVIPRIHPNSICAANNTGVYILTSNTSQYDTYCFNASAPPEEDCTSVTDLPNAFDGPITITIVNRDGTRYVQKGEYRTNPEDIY
Procedure: For hisCD44_HABD^20–169, interactions with HA oligosaccharides were assessed using MST. Protein (200 nM) was labeled with 5 μM red-Tris-NTA-650 dye following the manufacturer’s instructions in 10 mM Hepes, pH 7.4, 150 mM NaCl, 0.05% (v/v) Tween-20 (interaction buffer). Stock solutions of HA oligosaccharides (5 mM in interaction buffer) were serially diluted (1:1 in interaction buffer) 16 times before each concentration was mixed with an equal volume of labeled protein (10 nM final concentration hisCD44_HABD^20–169). Samples were loaded into standard glass capillaries (NanoTemper) and thermophoresis measured at 25 °C (with active temperature control) using a Monolith NT.115pico instrument (NanoTemper) running NT Control software (version 1.0.1). All experiments were performed in triplicate and data analyzed with the “KD fit model” in the NT Analysis software (version 2.0.2).

Link_TSG6 = target: T3, Link_TSG6 (Homo sapiens, UniProt P98066); experiment: ITC of HA oligosaccharides binding to Link_TSG6; details: for N / ΔG / ΔH / −TΔS / Kd: Table 4, 25 °C, 5 mM MES pH 6.0, mean ± SEM; for N: 0.029 mM Link_TSG6, 0.29 mM oligosaccharide; for N / Kd: four titrations; for Kd: read-out: KD; for % Binding affinity Link_TSG6: Table 6, relative to unmodified oligosaccharide of the same length, by ITC
T3 construct: made in house
T3 sequence (P98066 36-129 limits assumed): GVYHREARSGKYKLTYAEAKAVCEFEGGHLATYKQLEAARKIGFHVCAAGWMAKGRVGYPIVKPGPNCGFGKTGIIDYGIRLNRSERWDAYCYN
Procedure: ITC experiments were performed using a MicroCal PEAQ-ITC instrument (Malvern Instruments). Oligosaccharide stock solutions were prepared at 0.29 mM (in 5 mM MES, pH 6.0) and injected (18 × 2 μl with 120 s spacing between injections) into the cell containing ∼200 μl Link_TSG6 (0.029 mM) in matched buffer at 25 °C. Data were fit to a one site binding model, after subtracting the heats from the last three injections to account for heat of dilution of the oligosaccharide into buffer. Each oligosaccharide was analyzed in four independently performed ITC experiments.

SMILES | Substrate for HC transfer (recombinant human TSG-6) | Activity as substrate for HC transfer (text) (recombinant human TSG-6) | % of binding to hisCD44_HABD^20–169 compared to the unmodified oligosaccharide of the same length (hisCD44_HABD^20–169; MST) [%] | % HAx^AN: percentage of binding affinity (KB) compared to the unmodified oligosaccharide of the same length (hisCD44_HABD^20–169; MST) [%] | Kd (hisCD44_HABD^20–169; MST) [µM] | % Binding affinity hisCD44_HABD^20–169 (hisCD44_HABD^20–169) [%] | N (Link_TSG6; ITC) | ΔG (Link_TSG6; ITC) [kcal/mol] | ΔH (Link_TSG6; ITC) [kcal/mol] | −TΔS (Link_TSG6; ITC) [kcal•mol^a1] | Kd (Link_TSG6; ITC) [nM] | % Binding affinity Link_TSG6 (Link_TSG6) [%] | Fold increase in affinity for CD44_HABD compared to the unmodified oligosaccharide (hisCD44_HABD^20–169; MST) [fold] | % of binding to Link_TSG6 compared to the unmodified oligosaccharide of the same length (Link_TSG6; ITC) [%]
CC(=O)N[C@H]1[C@H](O[C@H]2[C@H](O)[C@@H](O)[C@H](O[C@H]3[C@H](O)[C@@H](CO)O[C@@H](O[C@H]4[C@H](O)[C@@H](O)[C@H](O[C@@H]([C@H](O)[C@H](O)CO)[C@H](CNc5cc[nH]n5)NC(C)=O)O[C@@H]4C(=O)O)[C@@H]3NC(C)=O)O[C@@H]2C(=O)O)O[C@H](CO)[C@@H](O)[C@@H]1O[C@@H]1O[C@H](C(=O)O)[C@@H](O)[C@H](O)[C@H]1O [HA6-3APY] | Yes | good substrates; also recorded: could become covalently coupled to an HC | 91 | 91 | 113 ± 6 | 91 | 0.93 ± 0.02 | -7.77 ± 0.15 | -7.82 ± 0.73 | 0.04 ± 0.87 | 2240 ± 680 | 49 | – | –
CC(=O)N[C@H]1[C@H](O[C@H]2[C@H](O)[C@@H](O)[C@H](O[C@H]3[C@H](O)[C@@H](CO)O[C@@H](O[C@H]4[C@H](O)[C@@H](O)[C@H](O[C@@H]([C@H](O)[C@H](O)CO)[C@H](CNc5cccc6c5CCC6)NC(C)=O)O[C@@H]4C(=O)O)[C@@H]3NC(C)=O)O[C@@H]2C(=O)O)O[C@H](CO)[C@@H](O)[C@@H]1O[C@@H]1O[C@H](C(=O)O)[C@@H](O)[C@H](O)[C@H]1O [HA6-4AI] | No | No HC•HA6 complexes were observed | 28 | 28 | 369 ± 43 | 28 | 0.97 ± 0.03 | -7.98 ± 0.03 | -7.16 ± 0.32 | −0.82 ± 0.30 | 1420 ± 60 | 77 | – | –
CC(=O)N[C@H]1[C@H](O[C@H]2[C@H](O)[C@@H](O)[C@H](O[C@H]3[C@H](O)[C@@H](CO)O[C@@H](O[C@H]4[C@H](O)[C@@H](O)[C@H](O[C@@H]([C@H](O)[C@H](O)CO)[C@H](CNc5ccc6c(c5)CCC6)NC(C)=O)O[C@@H]4C(=O)O)[C@@H]3NC(C)=O)O[C@@H]2C(=O)O)O[C@H](CO)[C@@H](O)[C@@H]1O[C@@H]1O[C@H](C(=O)O)[C@@H](O)[C@H](O)[C@H]1O [HA6-5AI] | No | No HC•HA6 complexes were observed | 133 | 133 | 77 ± 12 | 133 | 1.03 ± 0.02 | -8.43 ± 0.08 | -7.46 ± 0.37 | −0.96 ± 0.42 | 680 ± 80 | 162 | 1.3 | ~162

From PMC11460632, “Chemical modification of hyaluronan oligosaccharides differentially modulates hyaluronan–hyaladherin interactions” (The Journal of Biological Chemistry, 2024)
